Data reported in EP0603240B1, “SAFENING HERBICIDAL PYRAZOLYLSULFONYLUREAS” (priority 1991, dated 1993).

Experiments:
Format in all cases: in vivo
[1] = test system: barnyardgrass (Echinochloa crusgalli); test: Example 22: retest of Example 21 at reduced greenhouse temperatures; details: Table 22
Method: (§1) Containers were filled and compacted with a fumigated silt loam top soil to a depth of about 1.3 cm from the top of the container. A first container was designated as an untreated control, a second container was designated as a herbicide control, and a third container was designated as a herbicide + antidote test container. Each of the containers was seeded with a crop species. A measured amount of herbicide dispersed or dissolved in acetone was applied to a measured quantity of soil. To this same quantity of soil treated with herbicide, there was added a measured amount of antidote dispersed or dissolved in acetone. The quantity of soil treated with the herbicide and antidote was thoroughly mixed to incorporate the herbicide and antidote in the soil uniformly. The seed bed in the third container of soil was covered with the soil treated with the herbicide and antidote and the container was leveled. For each test series, the seed beds of the first and second containers were likewise covered by soil layers. the cover layer of the first container was not treated with herbicide or antidote.
(§2) The containers were then placed on a bench in a greenhouse and sub-irrigated as required for the duration of the test. […] Plant response is measured in terms of percent injury. Antidote efficacy is indicated as the difference in plant injury by the herbicide(s) without the antidote and with the antidote.
(§3) This procedure is the same as Procedure I, but modified in the manner that after incorporation of the chemicals (herbicide and antidote) the containers with the covered seedbed were treated with an initial overhead irrigation equivalent to 0.6 cm rainfall, then subsequently sub-irrigated as required on greenhouse benches.
(§4) In the series of greenhouse tests described below, for routine screening purposes the herbicide/antidote compositions were tested in crop/weed combinations involving corn as the crop and either or both of the weeds barnyardgrass (Echinochloa crusgalli), a monocotyledonous weed, and velvetleaf (Abutilon theophrasti), a dicotyledonous weed. In the tables below, these weeds are indicated by the symbols "BYG" and "VL", respectively.
(§5) In this example, tests were conducted as in the preceding Examples 18-20, except here the co-herbicidal component was SUTAN® PLUS, a commercial product comprising as the active herbicidal ingredient the compound butylate (Herbicide No. 10) and an antidote […] (Antidote No. 1). Again, the antidotal compounds herein were Nos. 1, 2, 7, 13 and 15. Procedure II was used.
(§6) The experiments in this example were designed as a retest of those described in Example 21 in view of the uncharacteristically poor corn safety and weed control, believed to have resulted from unseasonably high temperatures in the greenhouse. Accordingly, temperatures were reduced for these tests.

[2] = test system: velvetleaf (Abutilon theophrasti); test: as above; details: Table 22
Method: as §1, §2, §3, §4, §5, §6

corn = test: Example 8, Procedure II: Herbicide No. 1 + butachlor (No. 9) with antidotes
Method: as §1, §2, §3
(§7) In this test, the efficacy of the same five antidotes used in Examples 6 and 7 was investigated in compositions comprising Herbicide No. 1 and as a co-herbicide, butachlor (Herbicide No. 9), active ingredient in MACHETE® herbicide, a leading commercial rice herbicide. The test procedure used in this example was the same as that in Examples 6 and 7.

[3] = test system: barnyardgrass (Echinochloa crusgalli); test: Example 10, Procedure II: Herbicide No. 1 + propachlor (No. 5) with antidotes
Method: as §1, §2, §3, §4
(§8) In this test, the safening effect of various antidotes on the herbicidal combination of Herbicide No. 1 and another α-chloroacetanilide co-herbicide, propachlor, (Herbicide No. 5) was investigated. Propachlor is the active ingredient in the commercial herbicide RAMROD®. Procedure II was also used in this test as in the preceding example.

[4] = test system: velvetleaf (Abutilon theophrasti); test: as above
Method: as §1, §2, §3, §4, §8

[5] = test system: barnyardgrass (Echinochloa crusgalli); test: Example 8, Procedure II: Herbicide No. 1 + butachlor (No. 9) with antidotes
Method: as §1, §2, §3, §4, §7

[6] = test system: velvetleaf (Abutilon theophrasti); test: as above
Method: as §1, §2, §3, §4, §7

[7] = Herbicide No.1 0.56 Kg/ha + SUTAN + 8.96 Kg/ha + antidote 2.24 Kg/ha
[8] = Herbicide No.1 0.56 Kg/ha + SUTAN + 8.96 Kg/ha + antidote 8.96 Kg/ha
[9] = Herbicide No.1 1.12 Kg/ha + SUTAN + 8.96 Kg/ha + antidote 2.24 Kg/ha
[10] = Herbicide No.1 1.12 Kg/ha + SUTAN + 8.96 Kg/ha + antidote 8.96 Kg/ha
[11] = Herbicide No.1 0.14 + No.9 2.24 kg/ha + antidote 2.24 kg/ha
[12] = Herbicide No.1 0.14 + No.9 2.24 kg/ha + antidote 8.96 kg/ha
[13] = Herbicide No.1 0.56 + No.9 2.24 kg/ha + antidote 2.24 kg/ha
[14] = Herbicide No.1 0.56 + No.9 2.24 kg/ha + antidote 8.96 kg/ha
[15] = Herbicide No.1 0.14 kg/ha + Herbicide No.5 4.48 kg/ha, antidote rate 2.24 kg/ha
[16] = Herbicide No.1 0.14 kg/ha + Herbicide No.5 4.48 kg/ha, antidote rate 8.96 kg/ha
[17] = Herbicide No.1 0.56 kg/ha + Herbicide No.5 4.48 kg/ha, antidote rate 2.24 kg/ha
[18] = Herbicide No.1 0.56 kg/ha + Herbicide No.5 4.48 kg/ha, antidote rate 8.96 kg/ha

| SMILES | % Injury BYG [1, 7] | % Injury BYG [1, 8] | % Injury BYG [1, 9] | % Injury BYG [1, 10] | % Injury VL [2, 7] | % Injury VL [2, 8] | % Injury VL [2, 9] | % Injury VL [2, 10] | % Injury Corn (corn; [11]) | % Injury Corn (corn; [12]) | % Injury Corn (corn; [13]) | % Injury Corn (corn; [14]) | % Injury BYG [3, 15] | % Injury BYG [3, 16] | % Injury BYG [3, 17] | % Injury BYG [3, 18] | % Injury VL [4, 15] | % Injury VL [4, 16] | % Injury VL [4, 17] | % Injury VL [4, 18] | further results |
| --- | --- | --- | --- | --- | --- | --- | --- | --- | --- | --- | --- | --- | --- | --- | --- | --- | --- | --- | --- | --- | --- |
| O=C(C(Cl)Cl)N1CCOC12CCCCC2 [compound 7] | 90% | 90% | 95% | 80% | 80% | 75% | 97% | 70% | 5% | 10% | 25% | 20% | 99% | 98% | 98% | 96% | 70% | 75% | 95% | 80% | % Injury BYG [5, 11]: 97%; % Injury BYG [5, 12]: 99%; % Injury BYG [5, 13]: 99%; % Injury BYG [5, 14]: 99%; % Injury VL [6, 11]: 70%; % Injury VL [6, 12]: 65%; % Injury VL [6, 13]: 75%; % Injury VL [6, 14]: 65% |
| CC1(C(Cl)Cl)OCCO1 [compound 13] | 90% | 90% | 95% | 93% | 85% | 95% | 95% | 90% | 25% | 10% | 45% | 30% | 98% | 97% | 99% | 98% | 70% | 70% | 80% | 75% | % Injury BYG [5, 11]: 99%; % Injury BYG [5, 12]: 99%; % Injury BYG [5, 13]: 99%; % Injury BYG [5, 14]: 100%; % Injury VL [6, 11]: 75%; % Injury VL [6, 12]: 80%; % Injury VL [6, 13]: 85%; % Injury VL [6, 14]: 85% |
| O=C1OC(=O)c2cccc3cccc1c23 [compound 2] | 80% | 90% | 85% | 90% | 80% | 90% | 93% | 90% | 15% | 15% | 25% | 20% | 100% | 99% | 99% | 99% | 60% | 80% | 75% | 80% | % Injury BYG [5, 11]: 99%; % Injury BYG [5, 12]: 99%; % Injury BYG [5, 13]: 99%; % Injury BYG [5, 14]: 98%; % Injury VL [6, 11]: 70%; % Injury VL [6, 12]: 75%; % Injury VL [6, 13]: 90%; % Injury VL [6, 14]: 80% |
| C=CCN(CC=C)C(=O)C(Cl)Cl [compound 1] | 93% | 90% | 85% | 90% | 80% | 80% | 80% | 80% | 20% | 10% | 20% | 15% | 99% | 99% | 98% | 99% | 75% | 70% | 70% | 80% | % Injury BYG [5, 11]: 99%; % Injury BYG [5, 12]: 99%; % Injury BYG [5, 13]: 98%; % Injury BYG [5, 14]: 99%; % Injury VL [6, 11]: 70%; % Injury VL [6, 12]: 70%; % Injury VL [6, 13]: 85%; % Injury VL [6, 14]: 80% |
